# Laboratory results published in US9024022B2, “Substrates of O6-alkylguanine-DNA alkyltransferase and mutants thereof” (Cis Bio International, priority 2008, dated 2015).
# What was measured:
# [1] = biological target: T1, SNAP-tag enzyme (GST-SNAP-tag-FKBP fusion protein) (Homo sapiens, UniProt P16455, A127T/C150S/C62A/G131K/G132T/K125A/M134L/N157G/R128A/R135S/S159E); test: Enzymatic reactivity test in an in vitro model (TR-FRET labeling of GST-SNAPtag-FKBP recombinant protein); type: biochemical; settings: for percentage of labeling of the SNAP-tag enzyme compared with the reference substrate: after 30 min of incubation, regardless of the concentration of substrate
# T1 construct: GST (N)
# T1 sequence (P16455 1-182 C62A/K125A/A127T/R128A/G131K/G132T/M134L/R135S/C150S/N157G/S159E limits assumed): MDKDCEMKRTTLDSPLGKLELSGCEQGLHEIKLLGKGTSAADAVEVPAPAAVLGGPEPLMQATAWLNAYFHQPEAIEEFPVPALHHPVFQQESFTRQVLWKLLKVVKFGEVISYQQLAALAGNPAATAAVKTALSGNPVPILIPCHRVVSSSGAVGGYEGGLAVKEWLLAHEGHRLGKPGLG
# Source text: The test of reactivity of the substrates according to the invention with the SNAP-tag enzyme is based on an in vitro test of labeling a recombinant protein.
# In this case, use is made of the FRB and FKBP proteins that interact in the presence of rapamycin.
# The FKBP protein is labeled by a first fluorophore via SNAP-tag technology: for this, a GST-SNAPtag-FKBP fusion protein is produced from the pSET7-26b plasmid according to the protocol of the commercial kit (SNAP express pSET7-26b kit, Covalys Biosciences AG, Witterswil/Switzerland). This fusion protein is then brought into contact with the first fluorophore conjugated to a reference BG derivative or to a BG derivative according to the invention.
# The FRB protein is itself coupled via conventional conjugation techniques with a donor fluorescent compound (europium TBP cryptate (KTBP), Cisbio Bioassay) or acceptor fluorescent compound (DY647, Dyomics) depending on the case, following the protocols provided with these products.
# The table below explains the nature of the pairs of fluorophores in each of the following examples 1 to 4:
# In each example, 2 nmol of FRB recombinant protein labeled with a europium cryptate or DY647 (2nd fluorophore) are co-incubated at ambient temperature with 2 nmol of GST-SNAP-tag-FKBP recombinant protein and increasing concentrations of BG labeled by the first fluorophore (BG-fluorophore of the prior art or BG-L1-A-L2-fluorophore according to the invention).
# The fluorescence readings are taken at 620 nm and at 665 nm on a RubyStar machine (BMG laboratory) after an excitation at 337 nm. The readings are carried out before and after induction of the FRB/FKBP protein interaction by 100 nM of rapamycin. This interaction is expressed by the emission of a TR-FRET signal. Since the SNAP-tag enzyme can only attach to a single fluorescent group, the increase in the TR-FRET signal is directly proportional to the percentage of labeled proteins in the reaction medium. This in vitro model makes it possible to establish enzymatic labeling kinetics as a function of the excess of substrate involved in the reaction.
# The results are indicated either as d665 or as % labeling according to the following formulae: d 665=(signal at 665 nm with the GST-ST-FKBP protein)−(signal at 665 nm without the GST-ST-FKBP protein).
# The percentage of labeling is obtained by comparison with the signal corresponding to the maximum labeling that is obtained after 18 hours of incubation. % labeling=(d665 at t measured/d665 18 h of incubation)×100. Procedure of the Enzymatic Reactivity Test in a Cell Model
# [2] = biological target: T2, N-AGT enzyme (AGT-mGluR2 fusion protein) (Homo sapiens, UniProt P16455); test: Enzymatic reactivity test in a cell model, N-AGT mutant; type: cell-based; settings: for EC50: living cells, N-AGT mutant, labeling 1 h at 37° C., read-out: half saturation concentration of the enzyme
# T2 construct: fused on or other part: type 2 metabotropic glutamate receptor (mGluR2)
# Experimental: (§1) This procedure makes it possible to test the reactivity of substrates according to the invention with an AGT expressed by COS 7 cells in the form of a fusion protein with the type 2 glutamate transmembrane receptor (mGluR2).
# (§2) Various mutants of AGT were analyzed in this study: SNAP-tag-ST26 or CLIP-tag from Covalys or the N-AGT mutant described by Gronemeyer et al. (Protein Engineering, Design & Selection, Vol. 19, No. 7, pp. 309-316, 2006).
# (§3) The transient transfection of the cells is carried out by electroporation using a Biorad electroporator: 10 million cells are transfected by 1 μg SNAP-tag-mGluR2+3 μg pcdna3.1 in a final volume of 300 μl. The electroporation parameters are: 280 V & 1000 μF.
# (§4) The cells are then seeded at 150 000 cells per well in Greiner plates (opaque black bottom) previously incubated with polyornithine for 30 minutes at 37° C.
# (§5) The cells are cultured in the DMEM+Phenol Red+10% FCS+penicillin/streptomycin+non-essential amino acids medium at 37° C. and 5% CO2. After 24 h of expression, a first washing operation is carried out with 100 μl of this same medium.
# (§6) The labeling of the AGT-mGluR2 fusion protein takes place in 100 μl of complete medium with increasing concentrations of BG-fluorophore or BG-L1-A-L2-fluorophore according to the invention for 1 h at 37° C. Before the reading, 4 washing operations are carried out with 100 μl of Tris-Krebs.
# (§7) For the substrates bearing fluorophores ATTO647 (example 2), DY647 (examples 1 and 5) and fluorescein-5-EX (example 3), the reading is carried out in 100 μl of Tris-Krebs in direct fluorescence at 682 nm on a Rubystar machine, and at 520 nm for those bearing fluorescein-5-EX (example 3).
# (§8) For the substrates bearing the terbium KR complex (examples 4 and 6), the reading is taken in 100 μl of Tris-Krebs in time-resolved fluorescence at 620 nm on a Rubystar machine.
# In order to validate the effect of the substrate according to the invention on another mutant of AGT, a characterization of extracellular labeling with the NAGT mutant was carried out.
# [3] = biological target: T3, SNAP-tag-ST26 enzyme (SNAP-tag-mGluR2 fusion protein) (Homo sapiens, UniProt P16455, A127T/C150S/C62A/G131K/G132T/K125A/M134L/N157G/R128A/R135S/S159E); test: Enzymatic reactivity test in a cell model, SNAP-tag-mGluR2 expressed by COS 7 cells; type: cell-based; settings: living COS 7 cells, labeling 1 h at 37° C., read-out: half saturation concentration of the enzyme
# T3 construct: expressed in transfected cells; host or cells: COS 7 cells, transient electroporation
# T3 sequence (P16455 1-182 C62A/K125A/A127T/R128A/G131K/G132T/M134L/R135S/C150S/N157G/S159E limits assumed): T1 sequence (P16455 1-182 C62A/K125A/A127T/R128A/G131K/G132T/M134L/R135S/C150S/N157G/S159E limits assumed)
# Experimental: as §1, §2
# • SNAP-tag-mGluR2 plasmid, prepared from the pSET-26b plasmid according to the protocol of the commercial kit (SNAP express pSTE7-26b kit, Covalys Biosciences) • Invitrogen pcdna3.1 plasmid. This plasmid is used as a negative control; the cells transfected with this plasmid are denoted “mock” and make it possible to determine the level of non-specific labeling. Protocol:
# as §3, §4, §5, §6, §7, §8
# [4] = biological target: T4, CLIP-tag enzyme (CLIPtag-mGluR2 fusion protein) (Homo sapiens, UniProt P16455, K32I/L33F/M60I/C62A/Y114E/Q115S/Q116H/A121V/K125A/A127T/R128A/G131N/G132T/M134L/R135D/C150Q/S151G/S152D/G153S/A154D/N157P/S159L); test: Cell model with CLIPtag-mGluR2 and SNAPtag-mGluR2 cotransfection, TR-FRET at 665 nm; type: cell-based; settings: cells incubated with 300 nM of BG-methylbenzamide-DY647; TR-FRET 665 nm; read-out: half saturation concentration of CLIPtag
# T4 construct: The co-expressed SNAPtag-mGluR2 is a separate chain that carries the FRET partner dye
# T4 sequence (P16455 1-207 K32I/L33F/M60I/C62A/Y114E/Q115S/Q116H/A121V/K125A/A127T/R128A/G131N/G132T/M134L/R135D/C150Q/S151G/S152D/G153S/A154D/N157P/S159L): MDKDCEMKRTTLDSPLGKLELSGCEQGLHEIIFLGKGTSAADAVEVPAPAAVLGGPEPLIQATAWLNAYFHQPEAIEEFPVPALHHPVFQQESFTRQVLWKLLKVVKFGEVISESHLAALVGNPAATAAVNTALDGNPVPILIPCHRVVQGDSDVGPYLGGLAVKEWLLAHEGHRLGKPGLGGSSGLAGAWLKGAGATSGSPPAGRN
# Experimental: The cell model used in this example is different from that used in the preceding examples:
# The cells are either cotransfected with a plasmid coding for the fusion protein CLIPtag-mGluR2 and another plasmid coding for the fusion protein SNAPtag-mGluR2, or transfected with a single plasmid coding for the fusion protein SNAPtag-mGluR2.
# Each cell population is incubated in the presence of 300 nM of BG-methylbenzamide-DY647 and increasing concentrations of reference substrates (BC-Tb(KR)) or of a substrate according to the invention (BC-methylbenzamide-Tb(KR)). The fluorescence is measured at 665 nm in TR-FRET mode on a Rubystar machine and the signal measured is representative of a transfer of energy following the dimerization of two monomers of mGluR2 labeled respectively by DY647 and Tb(KR).
# This example is carried out in the same way as example 7 but the cells are incubated in the presence of 300 nM of BG-methylbenzamide-Tb(KR) and increasing concentrations of reference substrate (BC-DY647) or of substrate according to the invention (BC-methylbenzamide-DY647), the formulae of which are below: […]
# T2 sequence (P16455 whole entry, looked up, the tested form may be a part): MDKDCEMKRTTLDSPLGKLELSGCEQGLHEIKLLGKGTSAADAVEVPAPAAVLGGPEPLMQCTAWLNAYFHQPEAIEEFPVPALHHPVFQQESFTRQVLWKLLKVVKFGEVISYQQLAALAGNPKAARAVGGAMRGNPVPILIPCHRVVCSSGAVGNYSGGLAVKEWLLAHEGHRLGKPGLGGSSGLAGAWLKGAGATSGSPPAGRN
compound,measurement,setting,value
DY647-cis-cyclohexane-benzylguanine [BG-cis-cyclohexane-DY647],percentage of enzyme labeled compared with the reference substrate,"[1]; in vitro, after 1 h of incubation, regardless of the substrate concentration",much better
"CCN1/C(=C/C=C/C=C/C2=[N+](CC)c3ccc(S(=O)(=O)[O-])cc3C2(C)C)C(C)(CCCC(=O)NCc2ccc(C(=O)NCc3ccc(COc4nc(N)nc5[nH]cnc45)cc3)cc2)c2cc(S(=O)(=O)O)ccc21 (stereo not drawn) [BG-methylbenzamide-DY647, Dy647-methylbenzamide-BG]",percentage of labeling of the SNAP-tag enzyme compared with the reference substrate,[1]; in vitro,greatly improved
same,"half saturation concentration, times lower relative to the reference substrate","[2]; N-AGT enzyme, versus BG-DY647",around 2 times
same,EC50,[2],22.3 nM
same,EC50,[3],91.3 nM
"CCN1/C(=C/C=C/C=C/C2=[N+](CC)c3ccc(S(=O)(=O)[O-])cc3C2(C)C)C(C)(CCCC(=O)NCc2ccc(COc3nc(N)nc4[nH]cnc34)cc2)c2cc(S(=O)(=O)O)ccc21 (stereo not drawn) [BG-DY647, benzylguanine-Dy647, reference compound]",EC50,[2],43 nM
same,EC50,[3],168 nM
"benzylguanine-Tb(KR) [BG-Tb(KR), reference compound]",EC50,[3],60 nM
"Nc1nc(OCc2ccc(CNC(=O)CCSCC(=O)Nc3ccc(-c4c5ccc(=O)cc-5oc5cc(O)ccc45)c(C(=O)O)c3)cc2)c2nc[nH]c2n1 [BG-fluorescein-5-EX, benzylguanine-fluorescein-5-EX, reference compound]",reactivity of the substrate with the SNAP-tag enzyme,"[1]; in vitro protein labeling, compared with reference substrate",adequate
"Atto465-BG [BG-Atto465, reference compound]",EC50,[3],1980 nM
DY647-aminomethylnicotinamide-benzylguanine [BG-aminomethylnicotinamide-DY647],percentage of labeling of the SNAP-tag enzyme compared with the reference substrate,[1]; in vitro,much better
"benzylcytosine-Tb(KR) [BC-Tb(KR), reference compound]",EC50,[4],820 nM
